Legend:
Type in all cases: cell-based
acetyl-SMC3 (Ac-SMC3) [1] = experiment: Ac-SMC3 level in HCT116 cells, Western blot; conditions: 6 h
Jurkat cells = experiment: Lipid peroxidation detection (BODIPY 581/591 C11), Jurkat; conditions: 10 μM, 24 h
Procedure: Jurkat cells (5 × 10^5), HCT116 cells (3 × 10^5) and THP-1 cells (5 × 10^5) were seeded on 6-well plates. The next day, cells were treated with indicated concentrations of compounds for 24 or 48 h. Then, cells were stained with 1.3 μM of BODIPY 581/591 C11 (Invitrogen, D3861) for another 1 h at 37 °C. Later, cells were harvested and washed three times with ice-cold PBS, followed by resuspended in FACS buffer (1% BSA in PBS). Lipid peroxidation was determined by NovoCyte Quanteon Flow Cytometer (Agilent Technologies, CA, USA).

HDAC6 = biological target: T1, HDAC6 (Homo sapiens, UniProt Q9UBN7); experiment: HDAC6 level in HCT116 cells, Western blot; set-up: endogenous in cells; host or cells: HCT116; conditions: 6 h
T1 sequence (Q9UBN7 1-1215): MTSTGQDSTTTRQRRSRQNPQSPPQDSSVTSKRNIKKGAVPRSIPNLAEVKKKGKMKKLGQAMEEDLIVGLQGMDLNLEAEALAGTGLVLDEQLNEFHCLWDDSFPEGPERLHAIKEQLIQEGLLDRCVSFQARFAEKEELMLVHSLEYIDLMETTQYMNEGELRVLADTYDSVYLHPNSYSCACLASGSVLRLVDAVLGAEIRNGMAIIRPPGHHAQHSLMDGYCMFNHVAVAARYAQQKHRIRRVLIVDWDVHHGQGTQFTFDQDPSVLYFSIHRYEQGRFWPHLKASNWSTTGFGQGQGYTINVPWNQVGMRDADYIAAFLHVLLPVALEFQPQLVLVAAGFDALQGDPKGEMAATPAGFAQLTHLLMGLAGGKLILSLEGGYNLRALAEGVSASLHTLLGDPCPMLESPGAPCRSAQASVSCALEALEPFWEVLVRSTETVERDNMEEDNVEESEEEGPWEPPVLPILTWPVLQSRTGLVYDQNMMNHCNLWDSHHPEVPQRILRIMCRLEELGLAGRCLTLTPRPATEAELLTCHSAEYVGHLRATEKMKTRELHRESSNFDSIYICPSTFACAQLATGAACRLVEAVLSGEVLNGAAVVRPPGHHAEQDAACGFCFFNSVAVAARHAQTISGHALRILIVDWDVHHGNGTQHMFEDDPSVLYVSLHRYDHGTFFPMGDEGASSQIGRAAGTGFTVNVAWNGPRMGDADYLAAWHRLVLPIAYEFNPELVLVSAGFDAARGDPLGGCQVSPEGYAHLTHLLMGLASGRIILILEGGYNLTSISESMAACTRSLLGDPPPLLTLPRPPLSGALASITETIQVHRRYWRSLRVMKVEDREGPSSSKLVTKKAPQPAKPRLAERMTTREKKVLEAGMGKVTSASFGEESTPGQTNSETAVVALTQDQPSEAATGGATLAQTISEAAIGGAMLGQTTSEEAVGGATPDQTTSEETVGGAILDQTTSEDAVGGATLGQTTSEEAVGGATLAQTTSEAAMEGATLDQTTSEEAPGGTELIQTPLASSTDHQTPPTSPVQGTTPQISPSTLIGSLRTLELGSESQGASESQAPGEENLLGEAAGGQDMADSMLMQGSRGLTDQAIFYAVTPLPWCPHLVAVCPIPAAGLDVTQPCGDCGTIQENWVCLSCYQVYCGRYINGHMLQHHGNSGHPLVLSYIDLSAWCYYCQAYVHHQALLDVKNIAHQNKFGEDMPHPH

[2] = test system: acetyl-histone H3 (Ac-HH3); experiment: Ac-HH3 level in HCT116 cells, Western blot; conditions: 6 h
HDAC4 = biological target: T2, HDAC4 (Homo sapiens, UniProt P56524); experiment: HDAC4 level in Jurkat cells, Western blot; conditions: 6 h
T2 construct: endogenous in cells; host or cells: Jurkat

acetyl-SMC3 (Ac-SMC3) [3] = experiment: Ac-SMC3 level in Jurkat cells, Western blot; conditions: 6 h

T2 sequence (P56524 whole entry): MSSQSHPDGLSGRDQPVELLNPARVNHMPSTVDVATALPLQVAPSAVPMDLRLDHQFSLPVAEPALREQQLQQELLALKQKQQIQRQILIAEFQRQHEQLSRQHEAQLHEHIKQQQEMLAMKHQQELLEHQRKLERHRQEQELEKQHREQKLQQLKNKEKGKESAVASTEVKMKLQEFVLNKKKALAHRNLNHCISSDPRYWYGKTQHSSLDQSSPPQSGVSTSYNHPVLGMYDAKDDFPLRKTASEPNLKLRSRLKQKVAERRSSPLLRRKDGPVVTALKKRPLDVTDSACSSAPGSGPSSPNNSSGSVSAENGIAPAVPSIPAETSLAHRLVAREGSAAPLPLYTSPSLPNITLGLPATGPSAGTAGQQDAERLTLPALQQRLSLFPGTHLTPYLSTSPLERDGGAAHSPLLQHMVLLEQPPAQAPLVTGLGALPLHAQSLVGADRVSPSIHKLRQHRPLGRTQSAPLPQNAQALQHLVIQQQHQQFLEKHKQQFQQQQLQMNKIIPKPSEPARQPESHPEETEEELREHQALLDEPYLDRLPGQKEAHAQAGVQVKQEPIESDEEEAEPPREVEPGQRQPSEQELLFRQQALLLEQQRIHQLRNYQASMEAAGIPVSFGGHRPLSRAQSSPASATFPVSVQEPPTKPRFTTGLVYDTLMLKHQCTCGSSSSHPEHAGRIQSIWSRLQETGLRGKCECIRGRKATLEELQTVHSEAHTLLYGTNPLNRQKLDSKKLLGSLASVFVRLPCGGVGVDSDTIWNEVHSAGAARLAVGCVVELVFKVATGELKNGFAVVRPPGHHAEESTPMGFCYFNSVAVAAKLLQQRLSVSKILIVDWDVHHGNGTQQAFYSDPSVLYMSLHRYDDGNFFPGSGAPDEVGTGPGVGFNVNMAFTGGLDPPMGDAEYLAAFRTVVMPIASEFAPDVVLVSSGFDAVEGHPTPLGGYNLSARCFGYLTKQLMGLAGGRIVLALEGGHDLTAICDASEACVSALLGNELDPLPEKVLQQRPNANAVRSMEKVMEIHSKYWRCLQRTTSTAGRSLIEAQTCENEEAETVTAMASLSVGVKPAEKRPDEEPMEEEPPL

CCCCCCNNC(=O)c1ccc(CNC(=O)CN2CCC(c3ccc(NC4CCC(=O)NC4=O)cc3)CC2)cc1 (stereo not shown) [Z16, 2-(4-(4-((2,6-Dioxopiperidin-3-yl)amino)phenyl)piperidin-1-yl)-N-(4-(2-hexylhydrazine-1-carbonyl)benzyl)acetamide]
concentration at which increased acetylation of SMC3 started (acetyl-SMC3 (Ac-SMC3) [1]): 40 nM | lipid peroxidation induced (Jurkat cells): over 40% | impact on HDAC6 (in words) (HDAC6): without significant impact | concentration at which increased acetylation of histone H3 started [2]: 40 nM | HDAC4 degradation (in words) (HDAC4): no obvious | concentration at which increased acetylation of SMC3 started (acetyl-SMC3 (Ac-SMC3) [3]): around 10 nM | concentration leading to obvious increased Ac-SMC3 (acetyl-SMC3 (Ac-SMC3) [3]): 0.01 µM

Reference: article PMC11345830, “Exploration of Hydrazide-Based HDAC8 PROTACs for the Treatment of Hematological Malignancies and Solid Tumors” (Journal of Medicinal Chemistry, 2024)
